# US6723837B1, “Nucleic acid molecule and encoded protein associated with sterol synthesis and metabolism” (Monsanto Technology LLC, priority 1999, dated 2004)
# Test system: wild type yeast LPY9
# Assay: RNA abundance on yeast ORF array after ketoconazole treatment vs control without ketoconazole
# Type: cell-based
# Conditions: LPY9, 2 hr, vs untreated LPY9
# Description: The yeast strain LPY9 (MATa, leu2, Ura3, his3) is grown overnight and inoculated into SD+ hul (histidine, uracil, leucine) media. Aliquots of the culture are treated with ketoconazole (an inhibitor of C-14α demethylase (P45014DM) enzyme) at 10 ug/ml, 50 ug/ml, and 100 ug/ml, corresponding to 10 ppm, 50 ppm, and 100 ppm, respectively. A sample of each is collected at 2, 4, and 6 hours after treatment. Control samples treated with DMSO (dimethyl sulfoxide-solvent for ketoconazole) but not with ketoconazole are also collected. Total RNA from each sample is collected by conventional methods, such as a Zirconium/Silica bead binding and extraction method. The sequence content of each sample is analyzed and compared by hybridizing each of them to a number of yeast ORF sequences immobilized on a Nylon membrane in an array format.
# Table 2, below, lists the RNAs in each sample whose abundance is effected by ketoconazole treatment or whose abundance differs between wild type and the double mutant strain. The table also lists the corresponding gene or sequence identifier for those RNAs. The RNAs are ranked by the ratio of either ketocanozole vs. control or mutant vs. control, using the ratio of 50 ppm ketocanozole/control as a basis for comparison.
smiles,measurement,setting,value
CC(=O)N1CCN(c2ccc(OCC3COC(Cn4ccnc4)(c4ccc(Cl)cc4Cl)O3)cc2)CC1 (centres unmarked) [ketoconazole],K-50/CK expression level ratio: YAL001C (TFC3),50 micro gram/ml,0.4743
same,K-50/CK expression level ratio: YAL013W (DEP1),50 micro gram/ml,5.546
same,K-50/CK expression level ratio: YAL048C,50 micro gram/ml,2.138
same,K-50/CK expression level ratio: YAR044W (OSH1),50 micro gram/ml,3.625
same,K-50/CK expression level ratio: YBL005W (PDR3),50 micro gram/ml,4.145
same,K-50/CK expression level ratio: YBL008W (HIR1),50 micro gram/ml,2.828
same,K-50/CK expression level ratio: YBR119W (MUD1),50 micro gram/ml,2.405
same,K-50/CK expression level ratio: YBR289W (SNF5),50 micro gram/ml,2.688
same,K-50/CK expression level ratio: YCL037C (SRO9),50 micro gram/ml,2.786
same,K-50/CK expression level ratio: YCR048W (ARE1),50 micro gram/ml,6.104
same,K-50/CK expression level ratio: YCR084C (TUP1),50 micro gram/ml,2.922
same,K-50/CK expression level ratio: YDL088C (ASM4),50 micro gram/ml,4.176
same,K-50/CK expression level ratio: YDR052C (DBF4),50 micro gram/ml,2.404
same,K-50/CK expression level ratio: YDR088C (SLU7),50 micro gram/ml,2.734
same,K-50/CK expression level ratio: YDR211W (GCD6),50 micro gram/ml,2.484
same,K-50/CK expression level ratio: YDR213W,50 micro gram/ml,32.14
same,K-50/CK expression level ratio: YDR253C (MET32),50 micro gram/ml,0.3397
same,K-50/CK expression level ratio: YDR264C (AKR1),50 micro gram/ml,2.198
same,K-50/CK expression level ratio: YDR389W (SAC7),50 micro gram/ml,4.561
same,K-50/CK expression level ratio: YDR422C (SIP1),50 micro gram/ml,2.187
same,K-50/CK expression level ratio: YFL054C,50 micro gram/ml,0.4794
same,K-50/CK expression level ratio: YFR009W (GCN20),50 micro gram/ml,2.486
same,K-50/CK expression level ratio: YFR034C (PHO4),50 micro gram/ml,11.22
same,K-50/CK expression level ratio: YGL001C,50 micro gram/ml,2.821
same,K-50/CK expression level ratio: YGL014W,50 micro gram/ml,3.229
same,K-50/CK expression level ratio: YGL071W (RCS1),50 micro gram/ml,3.696
same,K-50/CK expression level ratio: YGL112C (TAF60),50 micro gram/ml,2.077
same,K-50/CK expression level ratio: YGL192W (IME4),50 micro gram/ml,3.17
same,K-50/CK expression level ratio: YGR177C (ATF2),50 micro gram/ml,11.83
same,K-50/CK expression level ratio: YGR270W (YTA7),50 micro gram/ml,2.406
same,K-50/CK expression level ratio: YHL027W (RIM101),50 micro gram/ml,2.103
same,K-50/CK expression level ratio: YIL084C (SDS3),50 micro gram/ml,5.543
same,K-50/CK expression level ratio: YIR017C (MET28),50 micro gram/ml,0.3775
same,K-50/CK expression level ratio: YJL127C (SPT10),50 micro gram/ml,7.839
same,K-50/CK expression level ratio: YJR017C (ESS1),50 micro gram/ml,3.559
same,K-50/CK expression level ratio: YJR019C (TES1),50 micro gram/ml,2.83
same,K-50/CK expression level ratio: YKR034W (DAL80),50 micro gram/ml,5.044
same,K-50/CK expression level ratio: YLR098C (CHA4),50 micro gram/ml,4.756
same,K-50/CK expression level ratio: YLR120C (YAP3),50 micro gram/ml,3.623
same,K-50/CK expression level ratio: YLR153C (ACS2),50 micro gram/ml,3.379
same,K-50/CK expression level ratio: YLR249W (YEF3),50 micro gram/ml,3.145
same,K-50/CK expression level ratio: YMR019W (STB4),50 micro gram/ml,3.441
same,K-50/CK expression level ratio: YMR037C (MSN2),50 micro gram/ml,6.424
same,K-50/CK expression level ratio: YMR047C (NUP116),50 micro gram/ml,3.17
same,K-50/CK expression level ratio: YMR080C (NAM7),50 micro gram/ml,2.183
same,K-50/CK expression level ratio: YMR146C (TIF34),50 micro gram/ml,0.2248
same,K-50/CK expression level ratio: YNR019W (ARE2),50 micro gram/ml,1.791
same,K-50/CK expression level ratio: YOL067C (RTG1),50 micro gram/ml,10.03
same,K-50/CK expression level ratio: YOR127W (RGA1),50 micro gram/ml,2.532
same,K-50/CK expression level ratio: YOR237W (HES1),50 micro gram/ml,1418
same,K-50/CK expression level ratio: YOR337W (TEA1),50 micro gram/ml,2.979
same,K-50/CK expression level ratio: YPL028W (ERG10),50 micro gram/ml,2.019
same,K-50/CK expression level ratio: YPL119C (DBP1),50 micro gram/ml,3.246
same,K-50/CK expression level ratio: YPL226W,50 micro gram/ml,2.889
same,K-50/CK expression level ratio: YPL237W (SUI3),50 micro gram/ml,2.563
same,K-50/CK expression level ratio: YPR080W (TEF1),50 micro gram/ml,2.212
same,K-100/CK expression level ratio: YAL001C (TFC3),100 micro gram/ml,1.192
same,K-100/CK expression level ratio: YAL013W (DEP1),100 micro gram/ml,6.425
same,K-100/CK expression level ratio: YAL048C,100 micro gram/ml,4.221
same,K-100/CK expression level ratio: YAR044W (OSH1),100 micro gram/ml,3.884
same,K-100/CK expression level ratio: YBL005W (PDR3),100 micro gram/ml,6.083
same,K-100/CK expression level ratio: YBL008W (HIR1),100 micro gram/ml,2.887
same,K-100/CK expression level ratio: YBR119W (MUD1),100 micro gram/ml,1.399
same,K-100/CK expression level ratio: YBR289W (SNF5),100 micro gram/ml,3.039
same,K-100/CK expression level ratio: YCL037C (SRO9),100 micro gram/ml,2.394
same,K-100/CK expression level ratio: YCR048W (ARE1),100 micro gram/ml,10.53
same,K-100/CK expression level ratio: YCR084C (TUP1),100 micro gram/ml,3.272
same,K-100/CK expression level ratio: YDL088C (ASM4),100 micro gram/ml,3.321
same,K-100/CK expression level ratio: YDR052C (DBF4),100 micro gram/ml,1.583
same,K-100/CK expression level ratio: YDR088C (SLU7),100 micro gram/ml,2.688
same,K-100/CK expression level ratio: YDR211W (GCD6),100 micro gram/ml,1.824
same,K-100/CK expression level ratio: YDR213W,100 micro gram/ml,58.36
same,K-100/CK expression level ratio: YDR253C (MET32),100 micro gram/ml,0.3279
same,K-100/CK expression level ratio: YDR264C (AKR1),100 micro gram/ml,2.752
same,K-100/CK expression level ratio: YDR389W (SAC7),100 micro gram/ml,4.314
same,K-100/CK expression level ratio: YDR422C (SIP1),100 micro gram/ml,2.084
same,K-100/CK expression level ratio: YFL054C,100 micro gram/ml,0.6137
same,K-100/CK expression level ratio: YFR009W (GCN20),100 micro gram/ml,2.161
same,K-100/CK expression level ratio: YFR034C (PHO4),100 micro gram/ml,20.84
same,K-100/CK expression level ratio: YGL001C,100 micro gram/ml,1.985
same,K-100/CK expression level ratio: YGL014W,100 micro gram/ml,3.638
same,K-100/CK expression level ratio: YGL071W (RCS1),100 micro gram/ml,4.531
same,K-100/CK expression level ratio: YGL112C (TAF60),100 micro gram/ml,2.189
same,K-100/CK expression level ratio: YGL192W (IME4),100 micro gram/ml,6.478
same,K-100/CK expression level ratio: YGR177C (ATF2),100 micro gram/ml,12.56
same,K-100/CK expression level ratio: YGR270W (YTA7),100 micro gram/ml,1.946
same,K-100/CK expression level ratio: YHL027W (RIM101),100 micro gram/ml,2.593
same,K-100/CK expression level ratio: YIL084C (SDS3),100 micro gram/ml,6.907
same,K-100/CK expression level ratio: YIR017C (MET28),100 micro gram/ml,0.3009
same,K-100/CK expression level ratio: YJL127C (SPT10),100 micro gram/ml,10.1
same,K-100/CK expression level ratio: YJR017C (ESS1),100 micro gram/ml,3.221
same,K-100/CK expression level ratio: YJR019C (TES1),100 micro gram/ml,2.072
same,K-100/CK expression level ratio: YKR034W (DAL80),100 micro gram/ml,7.284
same,K-100/CK expression level ratio: YLR098C (CHA4),100 micro gram/ml,5.587
same,K-100/CK expression level ratio: YLR120C (YAP3),100 micro gram/ml,4.43
same,K-100/CK expression level ratio: YLR153C (ACS2),100 micro gram/ml,3.129
same,K-100/CK expression level ratio: YLR249W (YEF3),100 micro gram/ml,2.632
same,K-100/CK expression level ratio: YMR019W (STB4),100 micro gram/ml,3.398
same,K-100/CK expression level ratio: YMR037C (MSN2),100 micro gram/ml,7.661
same,K-100/CK expression level ratio: YMR047C (NUP116),100 micro gram/ml,4.774
same,K-100/CK expression level ratio: YMR080C (NAM7),100 micro gram/ml,2.171
same,K-100/CK expression level ratio: YMR146C (TIF34),100 micro gram/ml,0.7194
same,K-100/CK expression level ratio: YNR019W (ARE2),100 micro gram/ml,2.854
same,K-100/CK expression level ratio: YOL067C (RTG1),100 micro gram/ml,27.37
same,K-100/CK expression level ratio: YOR127W (RGA1),100 micro gram/ml,2.57
same,K-100/CK expression level ratio: YOR139C (SFL1),100 micro gram/ml,11.76
same,K-100/CK expression level ratio: YOR237W (HES1),100 micro gram/ml,1358
same,K-100/CK expression level ratio: YOR337W (TEA1),100 micro gram/ml,4.823
same,K-100/CK expression level ratio: YPL028W (ERG10),100 micro gram/ml,1.699
same,K-100/CK expression level ratio: YPL119C (DBP1),100 micro gram/ml,2.197
same,K-100/CK expression level ratio: YPL226W,100 micro gram/ml,2.556
same,K-100/CK expression level ratio: YPL237W (SUI3),100 micro gram/ml,2.548
same,K-100/CK expression level ratio: YPR080W (TEF1),100 micro gram/ml,1.859
